Counter-ions that a name gives are not always drawn.
Tested on: HCT116
Conditions: 72 h
In short: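 HCT116 cells were plated at 250 per well in 1536-well plates and allowed 5 h to attach. CellTiter-Glo luminescence was normalized to vehicle as 0% and positive control as -100%, followed by pattern correction. Four-parameter Hill fits provided IC50 and maximal efficacy.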

SMILES | IC50 cell viability (ICRF193 0 nM) | IC50 cell viability (ICRF193 200 nM)
CC(C)c1cccc(C(C)C)c1O [Propofol] | > 45.8 µM | > 45.8 µM
CNC(C)CC1CCCCC1 (stereo not drawn) [Propylhexedrine (hydrochloride)] | > 45.8 µM | > 45.8 µM
CCC(c1ccccc1)c1noc(CCN(CC)CC)n1 (stereo not drawn) [Proxazole citrate] | > 45.8 µM | > 45.8 µM
CN1CCCN=C1/C=C/c1cccs1 [Pyrantel tartrate] | > 45.8 µM | > 45.8 µM
NC(=O)c1cnccn1 [Pyrazinamide] | > 45.8 µM | > 45.8 µM
C=CC=CCC1=C(C)C(OC(=O)C2C(C=C(C)C)C2(C)C)CC1=O (stereo not drawn) [Pyrethrin 1] | > 45.8 µM | > 45.8 µM
CN(C)C(=O)Oc1ccc[n+](C)c1 [Pyridostigmine bromide] | > 45.8 µM | > 45.8 µM
COc1ccc(CN(CCN(C)C)c2ccccn2)cc1 [Pyrilamine] | > 45.8 µM | > 45.8 µM
CC(COc1ccc(Oc2ccccc2)cc1)Oc1ccccn1 (stereo not drawn) [Pyriproxyfen] | > 45.8 µM | > 45.8 µM
Cc1ncc(CSSCc2cnc(C)c(O)c2CO)c(CO)c1O [Pyrithioxin dihydrochloride] | > 45.8 µM | > 45.8 µM
O=P(O)(O)OP(=O)(O)O [Pyrophosphoric acid] | > 45.8 µM | > 45.8 µM
C=C[C@H]1CN2CC[C@H]1C[C@H]2[C@H](OC(=O)OCC)c1ccnc2ccc(OC)cc12 [QUININE ETHYL CARBONATE] | > 45.8 µM | > 45.8 µM
CNC(C)C(O)c1ccccc1 (stereo not drawn) [RACEPHEDRINE HYDROCHLORIDE] | > 45.8 µM | > 45.8 µM
CC(CCc1ccc(O)cc1)NCC(O)c1ccc(O)cc1 (stereo not drawn) [RACTOPAMINE HYDROCHLORIDE] | > 45.8 µM | > 45.8 µM
CC1=C(/C=C/C(C)=C/C=C/C(C)=C/CO)C(C)(C)CCC1 [RETINOL] | > 45.8 µM | > 45.8 µM
Fc1cccc(Br)c1NC1=NCCN1 [ROMIFIDINE] | > 45.8 µM | > 45.8 µM
CCCCCCCCCCCCCCCCCC(=O)NCCCC[C@H](NC(=O)CC[C@@H](NC(=O)[C@H](C)NC(=O)[C@@H](C)O[C@H]1[C@H](O)[C@@H](CO)OC(O)[C@@H]1NC(C)=O)C(N)=O)C(=O)O (stereo partly drawn) [ROMURTIDE] | > 45.8 µM | > 45.8 µM
COCCCOc1ccnc(C[S+]([O-])c2nc3ccccc3[nH]2)c1C (stereo not drawn) [Rabeprazole] | > 45.8 µM | > 45.8 µM
CNC(=C[N+](=O)[O-])NCCSCc1ccc(CN(C)C)o1 [Ranitidine] | > 45.8 µM | > 45.8 µM
COc1ccccc1OCC(O)CN1CCN(CC(=O)Nc2c(C)cccc2C)CC1 (stereo not drawn) [Ranolazine] | > 45.8 µM | > 45.8 µM

Other lines, results leading:

IC50 cell viability (ICRF193 0 nM) | IC50 cell viability (ICRF193 200 nM) | SMILES
> 45.8 µM | > 45.8 µM | CCC(Oc1ccccc1)C(=O)N[C@@H]1C(=O)N2[C@@H]1SC(C)(C)[C@@H]2C(=O)O (stereo partly drawn) [Propicillin]
> 45.8 µM | > 45.8 µM | CCCOC(=O)c1ccccc1 [Propyl benzoate]
> 45.8 µM | > 45.8 µM | CCCOC(=O)c1ccc(O)cc1 [Propyl-4-hydroxybenzoate]
> 45.8 µM | > 45.8 µM | CCCc1cc(=O)[nH]c(=S)[nH]1 [Propylthiouracil]
> 45.8 µM | > 45.8 µM | Cc1c(C(C)C)c(=O)n(-c2ccccc2)n1C [Propyphenazone]
> 45.8 µM | > 45.8 µM | CCCc1cc(C(N)=S)ccn1 [Protionamide]
> 45.8 µM | > 45.8 µM | CC(O)Cn1cnc2c1c(=O)n(C)c(=O)n2C (stereo not drawn) [Proxyphylline]
> 45.8 µM | > 45.8 µM | COCCCN1CCC(NC(=O)c2cc(Cl)c(N)c3c2OCC3)CC1 [Prucalopride]
> 45.8 µM | > 45.8 µM | Cc1oc(=O)oc1CN1CCN(c2cc3c(cc2F)c(=O)c(C(=O)O)c2n3C(C)S2)CC1 (stereo not drawn) [Prulifloxacin]
> 45.8 µM | > 45.8 µM | CNC(=O)OCc1cccc(COC(=O)NC)n1 [Pyricarbate]
> 45.8 µM | > 45.8 µM | Cc1ncc(COP(=O)(O)O)c(C=O)c1O [Pyridoxal phosphate hydrate]
> 45.8 µM | > 45.8 µM | Cc1ncc(COP(=O)(O)O)c(CN)c1O [Pyridoxamine phosphate]
> 45.8 µM | > 45.8 µM | Cc1ncc(CO)c(CO)c1O [Pyridoxine]
> 45.8 µM | > 45.8 µM | CC(C(=O)O)c1ccc(C2CCCCC2)c2ccccc12 (stereo not drawn) [Quadrisol]
> 45.8 µM | > 45.8 µM | O=c1c(O)c(-c2ccc(O)c(O)c2)oc2cc(O)cc(O)c12 [Quercetin]
> 45.8 µM | > 45.8 µM | OCCOCCN1CCN(C2=Nc3ccccc3Sc3ccccc32)CC1 [Quetiapine]
> 45.8 µM | > 45.8 µM | CCCN1CC(NS(=O)(=O)N(CC)CC)CC2Cc3c(O)cccc3CC21 (stereo not drawn) [Quinagolide (hydrochloride)]
> 45.8 µM | > 45.8 µM | CCOC(=O)[C@H](CCc1ccccc1)N[C@@H](C)C(=O)N1Cc2ccccc2C[C@H]1C(=O)O [Quinapril hydrochloride]
> 45.8 µM | > 45.8 µM | CCC1NC(=O)c2cc(S(N)(=O)=O)c(Cl)cc2N1 (stereo not drawn) [Quinethazone]
> 45.8 µM | > 45.8 µM | C=C[C@H]1CN2CC[C@H]1C[C@@H]2[C@@H](O)c1ccnc2ccc(OC)cc12 [Quinidine hydrochloride monohydrate]
> 45.8 µM | > 45.8 µM | CC(C)NC[C@@H](O)COc1ccc(CC(N)=O)cc1 [R-(+)-Atenolol]
> 45.8 µM | > 45.8 µM | Cc1cc2nc3c(=O)[nH]c(=O)nc-3n(CC(O)C(O)C(O)COP(=O)(O)O)c2cc1C (stereo not drawn) [RIBOFLAVIN 5-PHOSPHATE SODIUM]
> 45.8 µM | > 45.8 µM | CCc1ccc(Nc2c(F)c(F)cc(F)c2F)c(CC(=O)O)c1 [ROBENACOXIB]
> 45.8 µM | > 45.8 µM | Cc1nnc(C(=O)NC(C)(C)c2nc(C(=O)NCc3ccc(F)cc3)c(O)c(=O)n2C)o1 [Raltegravir]
> 45.8 µM | > 45.8 µM | Cc1nc(=O)c2cc(CN(C)c3ccc(C(=O)N[C@@H](CCC(=O)O)C(=O)O)s3)ccc2[nH]1 [Raltitrexed]
> 45.8 µM | > 45.8 µM | O=C(O)CCn1c2c(c3ccccc31)C[C@H](NS(=O)(=O)c1ccc(F)cc1)CC2 [Ramatroban]
> 45.8 µM | > 45.8 µM | CCC(=O)NCC[C@@H]1CCc2ccc3c(c21)CCO3 [Ramelteon]
> 45.8 µM | > 45.8 µM | CCOC(=O)[C@H](CCc1ccccc1)N[C@@H](C)C(=O)N1[C@H](C(=O)O)C[C@@H]2CCC[C@@H]21 [Ramipril]
> 45.8 µM | > 45.8 µM | Cn1cc(C(=O)[C@@H]2CCc3[nH]cnc3C2)c2ccccc21 [Ramosetron hydrochloride]
